Data on five compounds can be found in ChEMBL document CHEMBL1201862, “PubChem BioAssay data set” (2004).

Activity calls are given as the source filed them. A value given as a limit tells only on which side of the number the result lay.

Assay [1] concerns the target Benomyl/methotrexate resistance protein (Candida albicans, UniProt P28873). The assay can be described thus: Candida albicans Mdr1 pump inhibition curves – singleplex, Cherry Pick1 hits, dose response (AID 588608). It counts as functional.
Assay [2] deals with Multidrug resistance protein CDR1 (Candida albicans, UniProt P43071). The assay can be described thus: Candida albicans Cdr1 pump inhibition curves – singleplex, Cherry Pick2 set, dose response (AID 623996). It counts as functional. Particulars: read-out: EC50_MICROM.
A short description of assay [3]: THP-1 cell cytotoxicity, dose response, cytotoxicity control, set 3 (AID 504852). Particulars: Mycobacterium tuberculosis. It counts as functional.
The nature of assay [4]: THP-1 cell cytotoxicity, cytotoxicity control, set 4 (AID 504911). It counts as functional. Particulars: Mycobacterium tuberculosis.
The subject of assay [5] is H4. The assay can be described thus: Amyloid Precursor 5' UTR neuroblastoma cell reporter line Measured in Cell-Based System Using Plate Reader - 2078-04_Inhibitor_Dose_DryPowder_Activity. [Related pubchem assays (depositor defined):AID488894]. Particulars: Homo sapiens. Format: functional.
Assay [6] deals with H4. In words: inhibitors of control reporter signal in H4 cells – cell-based, plate reader, dry powder samples, counter-screen for prion reporter project, dose response (AID 540255). It counts as functional. Particulars: Homo sapiens. On the technique in general: A counterscreen serves to expose hits that act by an unwanted route or on another target.
Assay [7] is described as follows: HEK-293T viability loss, compound-treated – cell-based, uHTS hits, cytotoxicity control for B/T-cell NF-kB inhibitor project, dose response (AID 489019).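 Also: IC50 reflects cytotoxicity as loss of cell viability.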 It counts as functional.
Assay [8] can be described thus: HIV-1 AD8 envelope cell-cell fusion blockers – cherry-pick, dose response (AID 652062).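 Also: luciferase signal from cell-cell fusion driven by HIV-1 clade B AD8 Env; potency is for inhibitors of fusion seen as a drop in luminescence.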 It counts as functional, cell-based.
For assay [9], the target named is Paired box protein Pax-8 (Homo sapiens, UniProt Q06710). The assay can be described thus: PAX8 transcriptional activity inhibition in RMG-I – RMG-I cells, luciferase, cherry-pick, dose response (AID 687027).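 Also: luciferase reporter driven by Pax8 target thyroperoxidase promoter measured by SteadyGlo luminescence.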 It counts as functional, cell-based.
The target in assay [10] is Luciferin 4-monooxygenase (Photinus pyralis, UniProt P08659). In words: inhibition of purified Photinus pyralis luciferase – biochemical, dry powder samples, plate reader, dose response (AID 588451).
Assay [11] is described as follows: Luminescence-based counterscreen assay for KLF5 inhibitors: dose response cell-based high throughput screening assay to identify cytotoxic compounds using the IEC-6 intestinal epithelial cell line. [Related pubchem assays: 1700 (Primary screen.), 1834 (Confirmation screen.), 1858 (Summary AID.), 1905 (Counterscreen.)]. Format: functional.
Assay [12] deals with Jurkat. The assay can be described thus: blockers of NF-kB activation in T cells – Jurkat, luciferase reporter, luminescence, B- and T-cell, dose response (AID 489004).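 Also: NF-kB luciferase reporter Jurkat cells stimulated with PMA plus ionomycin.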 It counts as functional, cell-based. Particulars: Homo sapiens. On the technique in general: In a reporter assay the amount or activity of a reporter protein is the signal.
Assay [13] can be described thus: blockers of HIV-1 ZM109 envelope-driven cell-cell fusion – HeLa effector, CEM target cells, luciferase, cherry-pick, dose response (AID 652058).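 Also: luciferase signal from HIV-1 Env mediated cell-cell fusion of effector and target cells.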 Format: functional, cell-based.
Assay [14] in a line: off-target signal loss in HeLa-CEM21 co-culture – HeLa F-luc CTL cells, cherry-picked, counter-screen for HIV-1 Env fusion inhibitor project, dose response (AID 652040).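 Also: potency for signal decrease marking cytotoxic or nonspecific inhibition.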 It counts as functional, cell-based.
The nature of assay [15]: blockers of HIV-1 envelope-mediated cell-cell fusion – cherry-pick, dose response (AID 652057). Format: functional, cell-based.
The nature of assay [16]: blockers of bursicon-stimulated LGR2 cAMP reporter – cell-based, HEK293, CRE-luciferase reporter, cherry pick, set 2, dose response (AID 743343).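 Also: transfected cells were stimulated with diluted bursicon conditioned medium after compound addition.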 Format: functional.
The nature of assay [17]: blockade of melanocortin 4 receptor signaling – cell-based, plate reader, cherry pick, counter-screen for LGR2 antagonist project, dose response (AID 743444).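 Also: transfected HEK 293 cells stimulated with alpha-MSH peptide; potency of inhibitors of the alpha-MSH evoked signal.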 It counts as functional.
For assay [18], the system named is H4. The assay can be described thus: Inhibitors of Prion Protein 5' UTR mRNA Measured in Cell-Based System Using Plate Reader - 2078-01_Inhibitor_Dose_DryPowder_Activity. [Related pubchem assays (depositor defined):AID488894]. Particulars: Homo sapiens. Format: functional.
The target in assay [19] is T1, Hexokinase-1 (Homo sapiens, UniProt P19367).
T1 sequence (P19367 whole entry): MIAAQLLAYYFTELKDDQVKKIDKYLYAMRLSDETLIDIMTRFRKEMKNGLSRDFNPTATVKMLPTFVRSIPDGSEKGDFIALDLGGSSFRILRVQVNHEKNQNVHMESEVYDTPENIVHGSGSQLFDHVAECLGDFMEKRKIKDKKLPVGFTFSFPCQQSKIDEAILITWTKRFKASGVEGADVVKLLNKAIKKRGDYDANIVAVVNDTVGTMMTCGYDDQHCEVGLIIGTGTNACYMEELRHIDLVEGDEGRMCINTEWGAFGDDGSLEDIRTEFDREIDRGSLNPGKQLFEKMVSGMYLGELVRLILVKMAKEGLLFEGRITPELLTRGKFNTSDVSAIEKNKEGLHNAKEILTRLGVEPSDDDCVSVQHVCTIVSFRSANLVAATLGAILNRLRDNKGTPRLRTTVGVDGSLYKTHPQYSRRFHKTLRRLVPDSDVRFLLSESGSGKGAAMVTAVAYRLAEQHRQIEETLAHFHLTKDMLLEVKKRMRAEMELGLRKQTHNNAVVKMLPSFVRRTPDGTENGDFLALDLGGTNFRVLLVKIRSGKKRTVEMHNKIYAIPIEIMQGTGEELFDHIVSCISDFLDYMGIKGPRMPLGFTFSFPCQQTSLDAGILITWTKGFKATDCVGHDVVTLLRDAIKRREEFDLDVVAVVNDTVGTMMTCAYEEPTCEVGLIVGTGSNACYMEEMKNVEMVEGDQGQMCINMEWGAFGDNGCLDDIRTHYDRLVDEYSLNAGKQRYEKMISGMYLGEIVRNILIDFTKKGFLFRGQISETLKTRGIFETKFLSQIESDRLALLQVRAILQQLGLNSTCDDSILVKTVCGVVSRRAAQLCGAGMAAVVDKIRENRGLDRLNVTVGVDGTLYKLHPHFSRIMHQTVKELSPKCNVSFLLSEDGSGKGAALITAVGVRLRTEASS
In words: SAR analysis of small molecule inhibitors of hexokinase domain containing I (HKDC1) in the hexokinase 1 selectivity assay. [Related pubchem assays (depositor defined):AID493160, AID493190]. It counts as functional.

The target of assay [20] is T2, Hexokinase HKDC1 (Homo sapiens, UniProt Q2TB90).
T2 sequence (Q2TB90 whole entry): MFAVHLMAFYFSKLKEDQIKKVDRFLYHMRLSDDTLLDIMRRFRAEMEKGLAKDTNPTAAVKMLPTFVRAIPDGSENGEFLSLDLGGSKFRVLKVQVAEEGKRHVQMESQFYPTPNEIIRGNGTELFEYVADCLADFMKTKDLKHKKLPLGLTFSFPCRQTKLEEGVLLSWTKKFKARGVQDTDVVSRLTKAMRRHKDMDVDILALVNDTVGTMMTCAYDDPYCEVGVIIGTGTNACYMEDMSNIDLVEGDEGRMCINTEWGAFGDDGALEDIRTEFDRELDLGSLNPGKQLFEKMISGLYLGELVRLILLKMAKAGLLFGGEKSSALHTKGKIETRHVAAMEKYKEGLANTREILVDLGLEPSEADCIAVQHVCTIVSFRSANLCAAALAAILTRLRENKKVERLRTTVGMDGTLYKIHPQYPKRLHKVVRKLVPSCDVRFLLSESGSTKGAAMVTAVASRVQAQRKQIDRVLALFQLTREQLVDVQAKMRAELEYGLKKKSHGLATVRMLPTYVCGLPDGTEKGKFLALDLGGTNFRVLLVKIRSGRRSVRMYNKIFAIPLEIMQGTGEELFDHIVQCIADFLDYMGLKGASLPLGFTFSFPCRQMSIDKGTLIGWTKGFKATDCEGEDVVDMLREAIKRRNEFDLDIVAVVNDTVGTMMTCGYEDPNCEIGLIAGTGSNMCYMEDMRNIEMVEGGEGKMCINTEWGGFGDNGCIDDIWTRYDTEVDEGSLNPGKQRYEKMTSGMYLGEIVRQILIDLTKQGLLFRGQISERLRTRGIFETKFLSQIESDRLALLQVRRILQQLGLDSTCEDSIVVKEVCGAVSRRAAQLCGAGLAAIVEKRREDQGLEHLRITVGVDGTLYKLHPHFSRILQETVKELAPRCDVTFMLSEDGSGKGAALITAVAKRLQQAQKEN
The assay can be described thus: SAR analysis of small molecule inhibitors of hexokinase domain containing I (HKDC1). [Related pubchem assays (depositor defined):AID493160, AID493190]. Format: functional.

Assay [21] has as its target Platelet-activating factor acetylhydrolase 2, cytoplasmic (Mus musculus, UniProt Q8VDG7). The assay can be described thus: Late stage assay provider results from the probe development effort to identify inhibitors of PAFAH2: Fluorescence-based biochemical gel-based Activity-Based Protein Profiling (ABPP) IC50. [Related pubchem assays (depositor defined):AID492956, AID492969, AID493030].

Sequence of Luciferin 4-monooxygenase (P08659 whole entry): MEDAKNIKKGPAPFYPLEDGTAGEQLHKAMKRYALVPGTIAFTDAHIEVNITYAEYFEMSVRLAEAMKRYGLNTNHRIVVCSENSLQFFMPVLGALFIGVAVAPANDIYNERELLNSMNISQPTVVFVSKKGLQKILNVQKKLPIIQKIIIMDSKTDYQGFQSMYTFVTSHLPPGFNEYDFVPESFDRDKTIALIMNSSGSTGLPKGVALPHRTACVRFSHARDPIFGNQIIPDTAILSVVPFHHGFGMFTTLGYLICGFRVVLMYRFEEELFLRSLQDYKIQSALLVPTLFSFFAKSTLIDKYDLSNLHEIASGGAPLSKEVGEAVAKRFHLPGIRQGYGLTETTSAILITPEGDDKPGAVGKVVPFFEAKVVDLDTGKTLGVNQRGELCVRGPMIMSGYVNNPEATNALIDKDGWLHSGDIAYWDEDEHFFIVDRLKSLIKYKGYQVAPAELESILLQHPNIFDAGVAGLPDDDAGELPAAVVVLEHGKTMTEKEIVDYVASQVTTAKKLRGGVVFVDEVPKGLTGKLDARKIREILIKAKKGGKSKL
Sequence of Multidrug resistance protein CDR1 (P43071 whole entry, looked up): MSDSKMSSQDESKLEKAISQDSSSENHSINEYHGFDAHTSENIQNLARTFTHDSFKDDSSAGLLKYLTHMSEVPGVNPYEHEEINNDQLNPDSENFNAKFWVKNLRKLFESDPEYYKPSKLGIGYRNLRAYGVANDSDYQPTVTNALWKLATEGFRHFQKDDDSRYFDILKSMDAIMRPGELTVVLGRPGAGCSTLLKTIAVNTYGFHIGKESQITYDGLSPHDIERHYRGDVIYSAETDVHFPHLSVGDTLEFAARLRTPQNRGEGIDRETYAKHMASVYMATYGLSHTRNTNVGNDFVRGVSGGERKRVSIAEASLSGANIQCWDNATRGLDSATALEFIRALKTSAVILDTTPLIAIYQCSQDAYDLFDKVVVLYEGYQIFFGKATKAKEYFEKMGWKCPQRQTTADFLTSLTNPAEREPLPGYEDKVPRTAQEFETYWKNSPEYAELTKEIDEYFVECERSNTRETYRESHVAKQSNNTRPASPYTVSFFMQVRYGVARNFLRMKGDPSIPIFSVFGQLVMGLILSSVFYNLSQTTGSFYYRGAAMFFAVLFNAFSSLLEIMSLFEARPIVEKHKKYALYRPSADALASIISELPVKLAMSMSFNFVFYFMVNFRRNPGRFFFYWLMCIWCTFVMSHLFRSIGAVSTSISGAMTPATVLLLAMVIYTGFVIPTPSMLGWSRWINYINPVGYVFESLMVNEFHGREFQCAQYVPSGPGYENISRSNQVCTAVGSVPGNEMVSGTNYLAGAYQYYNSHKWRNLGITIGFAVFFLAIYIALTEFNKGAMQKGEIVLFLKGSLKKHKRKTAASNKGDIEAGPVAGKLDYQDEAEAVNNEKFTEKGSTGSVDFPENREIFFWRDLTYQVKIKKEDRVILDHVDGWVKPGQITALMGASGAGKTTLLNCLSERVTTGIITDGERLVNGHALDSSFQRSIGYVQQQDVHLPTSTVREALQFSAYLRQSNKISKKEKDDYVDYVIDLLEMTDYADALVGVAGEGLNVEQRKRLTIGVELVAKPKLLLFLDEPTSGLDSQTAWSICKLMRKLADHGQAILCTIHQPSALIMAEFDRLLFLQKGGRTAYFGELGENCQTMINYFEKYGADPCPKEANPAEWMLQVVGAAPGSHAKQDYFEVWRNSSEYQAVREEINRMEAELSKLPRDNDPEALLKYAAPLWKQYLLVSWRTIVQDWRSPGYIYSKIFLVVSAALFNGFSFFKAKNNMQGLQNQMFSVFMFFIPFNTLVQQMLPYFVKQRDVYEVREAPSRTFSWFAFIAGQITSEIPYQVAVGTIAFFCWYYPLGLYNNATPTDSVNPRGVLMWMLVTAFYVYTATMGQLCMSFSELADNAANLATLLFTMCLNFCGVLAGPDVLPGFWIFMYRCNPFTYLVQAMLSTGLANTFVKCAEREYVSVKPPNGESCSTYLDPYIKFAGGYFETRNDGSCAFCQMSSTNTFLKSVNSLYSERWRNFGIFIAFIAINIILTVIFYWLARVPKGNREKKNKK
Sequence of Benomyl/methotrexate resistance protein (P28873 whole entry): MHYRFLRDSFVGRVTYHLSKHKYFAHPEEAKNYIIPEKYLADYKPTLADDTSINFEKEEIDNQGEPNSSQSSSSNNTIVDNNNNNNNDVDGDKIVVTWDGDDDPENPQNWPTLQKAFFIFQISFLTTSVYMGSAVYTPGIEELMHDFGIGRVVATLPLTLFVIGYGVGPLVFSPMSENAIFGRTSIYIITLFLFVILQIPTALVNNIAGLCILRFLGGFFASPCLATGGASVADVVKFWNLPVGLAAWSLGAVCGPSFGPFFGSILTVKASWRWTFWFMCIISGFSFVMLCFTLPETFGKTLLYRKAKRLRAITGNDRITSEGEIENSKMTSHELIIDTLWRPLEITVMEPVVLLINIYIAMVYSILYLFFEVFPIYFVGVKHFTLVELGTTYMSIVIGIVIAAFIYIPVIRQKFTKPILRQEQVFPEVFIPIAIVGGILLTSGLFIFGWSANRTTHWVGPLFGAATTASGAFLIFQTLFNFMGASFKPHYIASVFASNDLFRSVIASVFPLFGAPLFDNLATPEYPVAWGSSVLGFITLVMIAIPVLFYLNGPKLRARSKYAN
Sequence of Paired box protein Pax-8 (Q06710 whole entry): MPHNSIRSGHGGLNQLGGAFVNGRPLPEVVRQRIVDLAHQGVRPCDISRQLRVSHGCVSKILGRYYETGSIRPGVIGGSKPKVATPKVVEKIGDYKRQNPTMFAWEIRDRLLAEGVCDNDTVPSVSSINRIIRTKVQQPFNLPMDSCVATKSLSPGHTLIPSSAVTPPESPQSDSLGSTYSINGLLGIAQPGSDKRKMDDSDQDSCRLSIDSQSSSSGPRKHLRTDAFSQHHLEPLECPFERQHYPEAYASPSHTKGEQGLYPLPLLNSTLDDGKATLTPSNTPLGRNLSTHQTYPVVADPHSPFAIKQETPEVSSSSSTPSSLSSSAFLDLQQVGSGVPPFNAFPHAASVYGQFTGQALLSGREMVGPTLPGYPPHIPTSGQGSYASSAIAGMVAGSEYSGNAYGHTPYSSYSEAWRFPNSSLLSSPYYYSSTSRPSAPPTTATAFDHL
Sequence of Platelet-activating factor acetylhydrolase 2, cytoplasmic (Q8VDG7 whole entry): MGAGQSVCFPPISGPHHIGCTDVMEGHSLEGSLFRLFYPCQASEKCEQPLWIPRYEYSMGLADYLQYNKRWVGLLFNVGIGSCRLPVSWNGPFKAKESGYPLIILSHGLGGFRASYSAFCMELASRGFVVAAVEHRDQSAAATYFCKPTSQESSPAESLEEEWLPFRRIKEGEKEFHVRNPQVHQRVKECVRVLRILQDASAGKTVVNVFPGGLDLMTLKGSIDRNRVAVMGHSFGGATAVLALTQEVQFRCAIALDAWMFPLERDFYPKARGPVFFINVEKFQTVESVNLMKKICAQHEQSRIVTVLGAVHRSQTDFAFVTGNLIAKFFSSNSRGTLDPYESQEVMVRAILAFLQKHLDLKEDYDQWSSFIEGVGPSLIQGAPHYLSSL

As for `COc1ccc(S(=O)(=O)N(C)C[C@H]2Oc3c(NC(=O)NC4CCCCC4)cccc3C(=O)N([C@H](C)CO)C[C@@H]2C)cc1`, the EC50 is 10.1 µM (active) in assay [1] and 10.4 µM (active) in assay [2].

Consider `O=C(CSc1ccccn1)NC1CCCCC1`, for which the CC50 in [3] and in assay [4] was > 100 µM (active) in each case.

As for `O=C(Nc1cccc(C(=O)O)c1)Nc1ccc2c(c1)OCO2`, the AC50 is 0.145 µM (active) in assay [5]; 1.97 µM (active) in assay [6]; 2.74 µM (active) in assay [8]; 5.13 µM (active) in assay [9]; 3.34 µM (active) in assay [10]; 5.37 µM (active) in assay [13]. Moreover, the AC50 in assay [14] is 1.81 µM (active); in assay [15], 0.605 µM (active); in [16], 1.53 µM (active); in assay [17], 1.47 µM (active); in assay [18], 0.333 µM (active). For the same compound, the results for the IC50 in [7], in assay [11] and in [12] were > 80 µM (inactive), > 39.8 µM (not active) and 1.77 µM (active), respectively.

Take `Cc1ccccc1/C=C\c1nc2ccccc2c(=O)n1Cc1ccccc1`: the IC50 in [19] and in [20] was > 80 µM (inactive) throughout.

As to `O=C(N1CCCC1)n1ncc(-c2ccc(Oc3ccccc3)cc2)n1`, the 50% inhibitory concentration (IC50) in assay [21] was 0.002 µM (active).

The term CC50 denotes the concentration giving 50% cytotoxicity. In general, AC50 refers to the concentration at which the activity in the assay is half-maximal. The IC50 is the concentration that gives 50% inhibition.
